Counter-ions that a name gives are not always drawn. Like-named read-outs stand apart in the source and are kept apart here.
Columns and labels:
[1] = biological target: T1, cloned human 5-HT1A receptors (Homo sapiens, UniProt P08908); assay: 35S-GTPγS binding assay, 5-HT1A antagonist activity; type: biochemical
T1 construct: expressed in transfected cells
T1 sequence (P08908 1-422): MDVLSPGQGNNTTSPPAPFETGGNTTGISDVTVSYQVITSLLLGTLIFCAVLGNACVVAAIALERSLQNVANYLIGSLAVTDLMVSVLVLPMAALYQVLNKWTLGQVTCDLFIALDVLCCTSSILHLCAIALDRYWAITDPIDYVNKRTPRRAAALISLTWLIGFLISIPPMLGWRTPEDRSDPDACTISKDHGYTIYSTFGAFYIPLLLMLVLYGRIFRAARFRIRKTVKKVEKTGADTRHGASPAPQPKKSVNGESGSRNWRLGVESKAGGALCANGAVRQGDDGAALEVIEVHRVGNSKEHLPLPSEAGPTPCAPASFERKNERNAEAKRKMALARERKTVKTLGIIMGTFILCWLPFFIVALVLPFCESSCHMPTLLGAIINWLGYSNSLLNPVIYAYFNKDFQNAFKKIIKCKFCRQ
Description: Antagonist activity at 5-HT1A receptors was established by using a ^35S-GTPγS binding assay similar to that used by Lazareno and Birdsall (Br. J. Pharmacol. 109: 1120, 1993), in which the test compound's ability to affect the binding of ^35S-GTPγS to membranes containing cloned human 5-HT1A receptors was determined. Agonists produce an increase in binding whereas antagonists produce no increase but rather reverse the effects of the standard agonist 8-OHDPAT. The test compound's maximum inhibitory effect is represented as the Imax, while its potency is defined by the IC50.

serotonin transporter = biological target: T2, serotonin transporter (Rattus norvegicus, UniProt P31652); assay: 3H-paroxetine displacement, serotonin transporter affinity; type: binding
T2 construct: displace ^3H-paroxetine from male rat frontal cortical membranes; from tissue; host or cells: male rat frontal cortex membranes
T2 sequence (P31652 whole entry): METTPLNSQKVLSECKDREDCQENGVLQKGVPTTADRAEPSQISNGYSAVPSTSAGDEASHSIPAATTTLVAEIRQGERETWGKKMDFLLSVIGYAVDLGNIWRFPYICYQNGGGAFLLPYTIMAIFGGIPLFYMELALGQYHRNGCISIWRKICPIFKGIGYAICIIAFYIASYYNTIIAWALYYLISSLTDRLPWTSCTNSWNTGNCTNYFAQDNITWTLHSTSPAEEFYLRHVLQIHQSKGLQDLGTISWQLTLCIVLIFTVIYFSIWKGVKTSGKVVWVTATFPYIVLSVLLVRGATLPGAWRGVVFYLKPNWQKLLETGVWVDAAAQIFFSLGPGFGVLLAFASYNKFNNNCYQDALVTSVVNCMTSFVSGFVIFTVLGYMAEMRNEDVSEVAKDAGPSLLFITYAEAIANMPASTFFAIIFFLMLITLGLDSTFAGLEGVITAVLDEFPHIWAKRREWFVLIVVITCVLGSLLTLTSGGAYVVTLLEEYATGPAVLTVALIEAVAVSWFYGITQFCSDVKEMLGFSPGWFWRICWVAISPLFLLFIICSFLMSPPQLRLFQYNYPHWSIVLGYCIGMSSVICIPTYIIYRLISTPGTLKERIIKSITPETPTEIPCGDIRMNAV

human 5-HT1A receptors = biological target: T3, human 5-HT1A receptors (Homo sapiens, UniProt P08908); assay: [3H] 8-OHDPAT displacement, 5-HT1A receptor affinity; type: binding
T3 construct: expressed in transfected cells; host or cells: CHO cells
T3 sequence (P08908 1-422): T1 sequence (P08908 1-422)
Description: High affinity for the serotonin 5-HT1A receptor was established by testing the claimed compound's ability to displace [^3H] 8-OHDPAT (dipropylaminotetralin) from the 5-HT1A serotonin receptor following a modification of the procedure of Hall et al., J. Neurochem. 44, 1685 (1985) which utilizes CHO cells stably transfected with human 5-HT1A receptors.

[2] = 35S-GTPγS binding, reversal of the effects of the standard agonist 8-OHDPAT
[3] = 35S-GTPγS binding, reversal of the effects of the standard agonist 8-OHDPAT, read-out: 5-HT1A Function IC50

Compound	melting point	IC50 [1]	5-HT1A Function Imax (maximum inhibitory effect) [1, 2]	Ki (serotonin transporter)	Ki (human 5-HT1A receptors)	IC50 [1, 3]	Ki (human 5-HT1A receptors; displacement of [3H] 8-OHDPAT, CHO cells stably transfected with human 5-HT1A receptors, read-out: 5-HT1A Receptor Affinity KI)
O=c1ccoc2c3c(ccc12)OC(CN1CC=C(c2c[nH]c4ccc(F)cc24)CC1)CO3 (stereo not drawn) (as salt: fumarate) (hydrate or solvate) [Example 1, 3-[4-(5-Fluoro-1H-indol-3-yl)-3,6-dihydro-2H-pyridin-1-ylmethyl]-2,3-dihydro-7H-pyrano[2,3-f][1,4]benzodioxin-7-one]	106 to 108 °C	–	–	–	–	–	–
Fc1ccc2[nH]cc(C3=CCN(CC4COc5ccc6c(c5O4)OCCC6)CC3)c2c1 (stereo not drawn) (as salt: oxalate) [Example 2, 5-Fluoro-3-[1,2,3,6-tetrahydro-1-[(2,3,8,9-tetrahydro-7H-pyrano[2,3-f][1,4]benzodioxin-2-yl)methyl]-4-pyridinyl]-1H-indole]	146 to 148 °C	–	–	–	–	–	–
C1=C(c2c[nH]c3ccccc23)CCN(CC2COc3ccc4c(c3O2)OCCC4)C1 (stereo not drawn) (as salt: oxalate) [Example 4, 3-{1-(2,3,8,9-Tetrahydro-7H-[1,4]dioxino[2,3-h]chromen-2-ylmethyl)-1,2,3,6-tetrahydropyridin-4-yl}-1H-indole]	140 °C	–	–	–	–	–	–
O=c1ccoc2c3c(ccc12)OC[C@H](CN1CC=C(c2c[nH]c4ccc(F)cc24)CC1)O3 [Example 1]	–	2.37 nM	100	2.69 nM	119 nM	–	–
Fc1ccc2[nH]cc(C3=CCN(CC4COc5ccc6c(c5O4)OCCC6)CC3)c2c1 (stereo not drawn) [Example 2, 5-Fluoro-3-[1,2,3,6-tetrahydro-1-[(2,3,8,9-tetrahydro-7H-pyrano[2,3-f][1,4]benzodioxin-2-yl)methyl]-4-pyridinyl]-1H-indole]	–	–	100	2.57 nM	27.6 nM	0.56 nM	–
O=C1CCOc2c1ccc1c2OC(CN2CC=C(c3c[nH]c4ccccc34)CC2)CO1 (stereo not drawn) [Example 3, 3-[4-(1H-indol-3-yl)-3,6-dihydro-2H-pyridin-1-ylmethyl]-2,3,6,7-tetrahydro-1,4,5-trioxa-phenanthren-8-one]	210 °C	–	–	2.74 nM	–	–	156 nM
C1=C(c2c[nH]c3ccccc23)CCN(CC2COc3ccc4c(c3O2)OCCC4)C1 (stereo not drawn) [Example 4, 3-{1-(2,3,8,9-Tetrahydro-7H-[1,4]dioxino[2,3-h]chromen-2-ylmethyl)-1,2,3,6-tetrahydropyridin-4-yl}-1H-indole]	–	–	87.0	0.9 nM	44.1 nM	0.38 nM	–

— patent publication US6943178B2 (Wyeth, priority 2001, dated 2005)
